Our source for the Activity values is ChEMBL document CHEMBL3244073, “1,2,4-Triazole amino nucleosides. 1-beta-D-3'-Amino-3'-deoxyribofuranosyl-1,2,4-triazole-3-carboxamide and related nucleosides” (1977).

The source made the active and inactive calls. No cut-off for these calls is given here.

This experiment deals with Vaccinia virus. Nature of the experiment: Antiviral activity against Vaccinia virus Lederle Chorioallantoic assessed as inhibition of virus-induced cytopathogenicity. The format is functional, organism-based. Conditions: Orthopoxvirus vaccinia.
Consider `N/C(=N/O)c1ncn([C@@H]2O[C@H](CO)[C@@H](N)[C@H]2O)n1`, for which the result was inactive.

With `NC(=O)c1ncn([C@@H]2O[C@H](CO)[C@@H](N)[C@H]2O)n1`, the outcome was inactive.

Turning to `NNC(=O)c1ncn([C@@H]2O[C@H](CO)[C@@H](N)[C@H]2O)n1`, the result was inactive.

As to `NC(=O)c1ncnn1[C@@H]1O[C@H](CO)[C@@H](N)[C@H]1O`, the result was inactive.

For the molecule `N/N=C(/N)c1ncn([C@@H]2O[C@H](CO)[C@@H](N)[C@H]2O)n1`, the result was inactive.

Turning to `N[C@H]1[C@@H](O)[C@H](n2cnc(C(=O)NO)n2)O[C@@H]1CO`, the outcome was inactive.
